Measurements taken from US20150190416A1, “FILAGGRIN PRODUCTION PROMOTER, THERAPEUTIC AGENT FOR DISEASES ASSOCIATED WITH REDUCTION IN PRODUCTION OF FILAGGRIN, AND METHOD FOR SCREENING FOR SAID THERAPEUTIC AGENT” (KYOTO UNIVERSITY, priority 2012, published 2015).

Experiments:
GPR22 = test: Blocking effect by GPR22 RNAi in NHEK cells (Reference Example 1); type: cell-based, human; conditions: calcium priming, siRNA 10 nM, Compound 1 10 nM, 1 day
Experimental: (§1) 1) 5×10^4 cells/well of NHEK cells (Invitrogen) were plated on a 24-well plate. Then, 500 μl of a culture medium containing a medium for proliferating normal human epidermal keratinocytes (HuMedia-KG2, KURABO INDUSTRIES LTD.) supplemented with hEGF (0.1 ng/ml), insulin (10 μg/ml), hydrocortisone (0.5 μg/ml), gentamycin (50 μg/ml), amphotericin B (50 ng/ml), and bovine brain pituitary extract (BPE) (0.4%, v/v) were added to the plate, and the cells were cultured under the conditions of 37° C. and 5% CO2.
2) 1 day after the step 1), the medium was exchanged for the medium supplemented with calcium every day, and culture was conducted for 2 days (priming).
3) The NHEK cells of the step 2) were transfected with 10 nM of siRNA per well of the 24-well plate by using a transfection reagent, Lipofectamine RNA Max (Invitrogen) according to the manufacturer's protocol.
4) After culture for 1 day after the step 3), the medium was exchanged for a medium to which Compound 1 dissolved in DMSO was added at 10 nM per well on the 24-well plate, and culture was conducted for 1 day. As a control example, a solvent only (vehicle) was added.
5) An extraction reagent (TRIzol™, Invitrogen) was used, and according to the manufacturer's protocol, total RNA was extracted from each of cells treated with the medicament. A reverse transcriptase reagent (Prime Script™, Takara) was used, and according to the manufacturer's protocol, cDNA was prepared from the total RNA. Real-time PCR was conducted by using SYBR™ Premix Ex Taq (Takara) with a CFX96 real-time PCR instrument according to the manufacturer's protocol, and the amounts of GPR22 mRNA and FLG mRNA were measured. The results of measurement are shown as a GAPDH ratio.

GPR22 mRNA = GPR22 mRNA expression in NHEK cells, real-time PCR (Example 4); type: cell-based, human; conditions: Compound 1 1 μM, 3 days
Experimental: (§2) In this example, the expression-inducing effects of Compound 1 on GPR142 mRNA and GPR22 mRNA in NHEK cells were confirmed.
as §1
(§3) 2) After culture under the conditions of the step 1) for 1 day, the medium was exchanged for the culture medium of the step 1) to which a DMSO solution of Compound 1 was added at 1 μM per well every day and the culture was conducted for 3 days. […]
(§4) 3) An extraction reagent (TRIzol™, Invitrogen) was used, and according to the manufacturer's protocol, total RNA was extracted from each of cells treated with the medicament. […] Next, real-time PCR was conducted by using the following primers and SYBR™ Premix Ex Taq (Takara) with a CFX96 real-time PCR instrument according to the manufacturer's protocol, and the amounts of GPR142mRNA and GPR22mRNA expression were measured. […]

FLG protein = FLG protein in cultured human normal skin, immunohistostaining (Example 12); type: cell-based; conditions: 1 μM, 4 days
From the text: In this example, the expression-increasing effect of Compound 1 (N-quinolylbenzamide derivative) on FLG monomer was examined by using human normal skin. The expression of the FLG monomer was confirmed by an immunohistostaining method using an anti-human FLG antibody. The medium used was a medium for proliferating normal human epidermal keratinocytes (HuMedia-KG2, KURABO INDUSTRIES LTD.). It should be noted that, in this example, surplus portions of normal skin derived from extirpation of portions of a skin disease were used under the agreement by the donor through Ethics Committee of Kyoto University.
1) Human normal skin (with a size of 5×5×5 mm) was put on a transwell of a 24-well transwell plate, 500 μl of the medium, to which Compound 1 (1 μM) or a control (vehicle (DMSO)) was added, were added to the lower part, and the skin was cultured. After culture for 2 days, the medium was exchanged for the same medium.
2) After 4 days, the cultured skin was collected, and was soaked in 10% formalin overnight, and thereafter, a paraffin section having a thickness of […] was prepared according to a conventional method. […]

GPR142 mRNA = GPR142 mRNA expression in NHEK cells, real-time PCR (Example 4); type: cell-based, human; conditions: Compound 1 1 μM, Ca 1.2 mM, 3 days, compared to the control
Experimental: as §2, §1, §3, §4

FLG monomer = FLG monomer in FLG gene mutant mice (flaky tail mice), Western blotting (Example 13); type: in vivo, mouse; conditions: 1 μM 10 μl/ear intradermally, ear epidermis after 8 days
Experimental: In this example, the expression-increasing effect of Compound 1 (N-quinolylbenzamide derivative) on FLG monomer was confirmed by using FLG gene homozygous or heterozygous mutant mouse (Jackson Laboratory, flaky tail mice). The expression of the FLG protein was confirmed by Western blotting.
1) Compound 1 (1 μM) dissolved in ultrapure water (milliQ, EMD Millipore) was injected intradermally to left and right ears of an FLG homozygous or heterozygous mutant mouse (10 μl/ear). As a control, ultrapure water (milliQ, EMD Millipore) was injected intradermally in the same manner.
2) After 3 days, Compound 1 or ultrapure water was further injected intradermally in the same manner.
3) After 8 days, ears of each mouse were cut under anesthesia, the skin of the cut ear was peeled off by pinching cartilage, and the skin on the dermal side was soaked in PBS containing 20 mM EDTA at 37° C. for 30 minutes. Next, the epidermis of the ear was peeled off and […] of Lysis buffer (0.1 M Tris-HCl (pH 9.0), 6 M Urea, 1% 2-mercapto-ethanol, 1% SDS, 1 mM EDTA, and Protease inhibitor cocktail) were added to the epidermis, and the epidermis was homogenized with an electrically powered pestle in the same manner as in the step 4) of Example 11 to prepare a sample. The sample was subjected to electrophoresis, and then to western blotting to confirm the expression of FLG monomer. […]

Structure (SMILES): CCc1ccc(OCc2ccccc2C(=O)Nc2ccc3nc(C)cc(N)c3c2)cc1.Cl [Compound 1, N-(4-Amino-2-methyl-6-quinolyl)-2-[(4-ethylphenoxy)methyl]benzamide hydrochloride]
- FLG mRNA expression in the presence of GPR22 siRNA (GPR22): not suppressed
- GPR22 mRNA expression in the presence of GPR22 siRNA (GPR22): suppressed by GPR22 siRNA
- GPR22 mRNA expression (GAPDH ratio) (GPR22 mRNA): induced GPR22 mRNA expression
- development of the stratum corneum (FLG protein): greater than that of the control
- FLG protein within the skin (FLG protein; immunohistostaining): markedly increased
- GPR142 mRNA expression (GAPDH ratio) (GPR142 mRNA): GPR142 mRNA expression was induced
- production of FLG monomer (FLG monomer; FLG heterozygous mutant mouse): production of the FLG monomer caused by Compound 1 was confirmed
- production of FLG monomer (FLG monomer; FLG homozygous mutant mouse): production of the FLG monomer was not observed
